Assay results taken from US7109243B2 (IRM LLC, priority 2003, dated 2006).

Key:
Cathepsin S = Cathepsin S (Homo sapiens, UniProt P25774); experiment: Cathepsin S inhibition assay (fluorogenic peptide substrate); type: biochemical; details: Table II, compounds of Formula I; read-out: Ki Cat. S
In short: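 Ki values come from nonlinear fitting of inhibited hydrolysis rates, taking free and total inhibitor concentrations as equal. Rates measured as rising fluorescence at 380/450 nm after reaction start with 50 μM final acetyl-HPVK-aminocarbamoylcoumarin.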

Cathepsin K = target: T1, Cathepsin K (Homo sapiens, UniProt P43235); experiment: Cathepsin K inhibition assay (fluorogenic peptide substrate); selectivity ratio vs cathepsin S; type: biochemical; details: ratio of cathepsin K inhibition constant to cathepsin S inhibition constant; Table II
T1 sequence (P43235 115-329): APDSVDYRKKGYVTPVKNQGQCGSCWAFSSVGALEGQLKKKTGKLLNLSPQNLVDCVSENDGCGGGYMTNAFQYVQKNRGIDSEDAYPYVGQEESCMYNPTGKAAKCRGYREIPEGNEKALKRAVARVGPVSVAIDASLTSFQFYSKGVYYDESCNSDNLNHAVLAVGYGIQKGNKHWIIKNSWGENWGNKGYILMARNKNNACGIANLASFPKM
In short: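 Fluorogenic kinetic assay, started with acetyl-Lys-His-Pro-Lys-aminocarbamoylcoumarin at 40 μM final, hydrolysis followed at ex 380/em 450 nm. Apparent inhibition constants from progress curves, converted to competitive inhibition constants. Selectivity expressed as isozyme inhibition constant divided by cathepsin S inhibition constant.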

Chain of Cathepsin S (P25774 115-331, species assumed): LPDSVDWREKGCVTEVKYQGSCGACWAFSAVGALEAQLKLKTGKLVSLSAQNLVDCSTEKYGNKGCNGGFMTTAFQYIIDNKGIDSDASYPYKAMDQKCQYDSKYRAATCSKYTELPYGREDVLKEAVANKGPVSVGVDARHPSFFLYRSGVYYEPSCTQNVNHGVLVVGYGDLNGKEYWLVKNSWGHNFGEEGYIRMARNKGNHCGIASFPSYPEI

Row | SMILES | Ki (Cathepsin S) [nM] | Selectivity for Cat. S over Cat. K (Cathepsin K)
1 | COc1ccc(NCCNC(=O)[C@H](CC2CCCCC2)NC(=O)[C@H](O)c2ccccc2)cc1 [Compound 160, 3-Cyclohexyl-2-(S)-(2-(R)-hydroxy-2-phenyl-acetylamino)-N-[2-(4-methoxy-phenylamino)-ethyl]-propionamide] | < 10000 | ++ (++, >100)
2 | COc1ccc(NCCNC(=O)[C@H](CC2CCCCC2)NC(=O)c2cnn(-c3ccc(Cl)cc3)c2C)cc1 [Compound 163, (S)-1-(4-Chloro-phenyl)-5-methyl-1H-pyrazole-4-carboxylic acid {2-cyclohexyl-1-[2-(4-methoxy-phenylamino)-ethylcarbamoyl]-ethyl}-amide] | < 100 | + (+, >10)
3 | COc1ccc(NCCNC(=O)[C@H](CC2CCCCC2)NC(=O)c2cc(F)cc(C(F)(F)F)c2)cc1 [Compound 165, (S)-N-{2-Cyclohexyl-1-[2-(4-methoxy-phenylamino)-ethylcarbamoyl]-ethyl}-3-fluoro-5-trifluoromethyl-benzamide] | < 100 | +++ (+++, >1000)
4 | COc1ccc(NCCNC(=O)[C@H](CC2CCCCC2)NC(=O)c2cccc(C(F)(F)F)c2F)cc1 [Compound 166, (S)-N-{2-Cyclohexyl-1-[2-(4-methoxy-phenylamino)-ethylcarbamoyl]-ethyl}-2-fluoro-3-trifluoromethyl-benzamide] | < 100 | +++ (+++, >1000)
5 | COc1ccc(NCCNC(=O)[C@H](CC2CCCCC2)NC(=O)c2ccc(C(F)(F)F)cc2F)cc1 [Compound 169, (S)-N-{2-Cyclohexyl-1-[2-(4-methoxy-phenylamino)-ethylcarbamoyl]-ethyl}-2-fluoro-4-trifluoromethyl-benzamide] | < 1000 | ++ (++, >100)
6 | COc1ccc(NCCNC(=O)[C@H](CC2CCCCC2)NC(=O)c2ccc(-c3ccc(Cl)cc3)cc2)cc1 [Compound 170, (S)-4′-Chloro-biphenyl-4-carboxylic acid {2-cyclohexyl-1-[2-(4-methoxy-phenylamino)-ethylcarbamoyl]-ethyl}-amide] | < 10000 | + (+, >10)
7 | COc1ccc(NCCNC(=O)[C@H](CC2CCCCC2)NC(=O)c2ccc(-c3cccc(OC)c3)cc2)cc1 [Compound 172, (S)-3′-Methoxy-biphenyl-4-carboxylic acid {2-cyclohexyl-1-[2-(4methoxy-phenylamino)-ethylcarbamoyl]-ethyl}-amide] | < 100 | +++ (+++, >1000)
8 | COc1ccc(NCCNC(=O)[C@H](CC2CCCCC2)NC(=O)c2ccc(-c3ccc4c(c3)OCO4)cc2)cc1 [Compound 176, (S)-4-Benzo[1,3]dioxol-5-yl-N-{2-cyclohexyl-1-[2-(4phenylamino)-ethylcarbamoyl]-ethyl}-benzamide] | < 100 | +++ (+++, >1000)
9 | COc1ccc(NCCNC(=O)[C@H](CC2CCCCC2)NC(=O)c2cc(OC)cc(OC)c2)cc1 [Compound 180, (S)-N-{2-Cyclohexyl-1-[2-(4-methoxy-phenylamino)-ethylcarbamoyl]-ethyl}-3,5-dimethoxy-benzamide] | < 100 | + (+, >10)
10 | COc1ccc(NCCNC(=O)[C@H](CC2CCCCC2)NC(=O)c2ccc(Br)s2)cc1 [Compound 182, (S)-5-Bromo-thiophene-2-carboxylic acid {2-cyclohexyl-1-[2-(4-methoxy-phenylamino)-ethylcarbamoyl]-ethyl}-amide] | < 100 | + (+, >10)
11 | COc1ccc(NCCNC(=O)[C@H](CC2CCCCC2)NC(=O)c2ccc3ncsc3c2)cc1 [Compound 186, (S)-Benzothiazole-6-carboxylic acid {2-cyclohexyl-1-[2-(4-methoxy-phenylamino)-ethylcarbamoyl]-ethyl}-amide] | < 100 | ++ (++, >100)
12 | COc1ccc(NCCNC(=O)[C@H](CC2CCCCC2)NC(=O)c2ccc3nc(N)sc3c2)cc1 [Compound 187, (S)-2-Amino-benzothiazole-6-carboxylic acid {2-cyclohexyl-1-[2-(4-methoxy-phenylamino)-ethylcarbamoyl]-ethyl}-amide] | < 100 | + (+, >10)
13 | COc1ccc(NCCNC(=O)[C@H](CC2CCCCC2)NC(=O)c2sc(-c3ccc(C(F)(F)F)cc3)nc2C)cc1 [Compound 188, (S)-4-Methyl-2-(4-trifluoromethyl-phenyl)-thiazole-5-carboxylic acid {2-cyclohexyl-1-[2-(4-methoxy-phenylamino)-ethylcarbamoyl]-ethyl}-amide] | < 100 | +++ (+++, >1000)
14 | COc1ccc(NCCNC(=O)[C@H](CC2CCCCC2)NC(=O)c2cc(-c3ccc(Cl)cc3)cs2)cc1 [Compound 189, (S)-4-(4-Chloro-phenyl)-thiophene-2-carboxylic acid {2-cyclohexyl-1-[2-(4-methoxy-phenylamino)-ethylcarbamoyl]-ethyl}-amide] | < 100 | ++ (++, >100)
15 | COc1ccc(NCCNC(=O)[C@H](CC2CCCCC2)NC(=O)c2nc(C)oc2C(F)(F)F)cc1 [Compound 190, (S)-2-Methyl-5-trifluoromethyl-oxazole-4-carboxylic acid {2-cyclohexyl-1-[2-(4-methoxy-phenylamino)-ethylcarbamoyl]-ethyl}-amide] | < 100 | +++ (+++, >1000)

More lines, now with the values ahead:

Row | Ki (Cathepsin S) [nM] | Selectivity for Cat. S over Cat. K (Cathepsin K) | SMILES
16 | < 100 | ++ (++, >100) | COc1ccc(NCCNC(=O)[C@H](CC2CCCCC2)NC(=O)c2cnn(-c3ccc(F)cc3)c2C)cc1 [Compound 161, (S)-1-(4-Fluoro-phenyl)-5-methyl-1H-pyrazole-4-carboxylic acid {2-cyclohexyl-1-[2-(4-methoxy-phenylamino)-ethylcarbamoyl]-ethyl}-amide]
17 | < 100 | + (+, >10) | COc1ccc(NCCNC(=O)[C@H](CC2CCCCC2)NC(=O)c2cnn(-c3ccc(OC)cc3)c2C)cc1 [Compound 162, (S)-1-(4-Methoxy-phenyl)-5-methyl-1H-pyrazole-4-carboxylic acid {2-cyclohexyl-1-[2-(4-methoxy-phenylamino)-ethylcarbamoyl]-ethyl}-amide]
18 | < 100 | +++ (+++, >1000) | CC[C@H](C(=O)N[C@@H](CC1CCCCC1)C(=O)NCCNc1ccc(OC)cc1)c1ccccc1 [Compound 164, N-{2-Cyclohexyl-1-(S)-[2-(4-methoxy-phenylamino)-ethylcarbamoyl]-ethyl}-2-(S)-phenyl-butyramide]
19 | < 100 | +++ (+++, >1000) | COc1ccc(NCCNC(=O)[C@H](CC2CCCCC2)NC(=O)c2ccc(F)c(C)c2)cc1 [Compound 167, (S)-N-{2-Cyclohexyl-1-[2-(4-methoxy-phenylamino)-ethylcarbamoyl]-ethyl}-4-fluoro-3-methyl-benzamide]
20 | < 100 | +++ (+++, >1000) | COc1ccc(NCCNC(=O)[C@H](CC2CCCCC2)NC(=O)c2ccc(-c3cc(Cl)cc(Cl)c3)cc2)cc1 [Compound 171, (S)-3′, 5′-Dichloro-biphenyl-4-carboxylic acid {2-cyclohexyl-1-[2-(4-methoxy-phenylamino)-ethylcarbamoyl]-ethyl}-amide]
21 | < 100 | + (+, >10) | COc1ccc(NCCNC(=O)[C@H](CC2CCCCC2)NC(=O)c2ccc(-c3ccccc3OC)cc2)cc1 [Compound 174, (S)-2′-Methoxy-biphenyl-4-carboxylic acid {2-cyclohexyl-1-[2-(4-methoxy-phenylamino)-ethylcarbamoyl]-ethyl}-amide]
22 | < 100 | +++ (+++, >1000) | COc1ccc(NCCNC(=O)[C@H](CC2CCCCC2)NC(=O)c2cccc(-c3ccc(Cl)cc3)c2)cc1 [Compound 175, (S)-4′-Chloro-biphenyl-3-carboxylic acid {2-cyclohexyl-1-[2-(4-methoxy-phenylamino)-ethylcarbamoyl]-ethyl}-amide]
23 | < 100 | ++ (++, >100) | COc1ccc(NCCNC(=O)[C@H](CC2CCCCC2)NC(=O)c2ccc(Br)o2)cc1 [Compound 177, (S)-5-Bromo-furan-2-carboxylic acid {2-cyclohexyl-1-[2-(4-methoxy-phenylamino)-ethylcarbamoyl]-ethyl}-amide]
24 | < 100 | +++ (+++, >1000) | COc1ccc(NCCNC(=O)[C@H](CC2CCCCC2)NC(=O)c2cc(Br)cc(Br)c2)cc1 [Compound 178, (S)-3,5-Dibromo-N-{2-cyclohexyl-1-[2-(4-methoxy-phenylamino)-ethylcarbamoyl]-ethyl}-benzamide]
25 | < 100 | +++ (+++, >1000) | COc1ccc(NCCNC(=O)[C@H](CC2CCCCC2)NC(=O)c2cc(Cl)cc(Cl)c2)cc1 [Compound 179, (S)-3,5-Dichloro-N-{2-cyclohexyl-1-[2-(4-methoxy-phenylamino)-ethylcarbamoyl]-ethyl}-benzamide]
26 | < 100 | ++ (++, >100) | COc1ccc(NCCNC(=O)[C@H](CC2CCCCC2)NC(=O)c2c[nH]c3ccccc23)cc1 [Compound 185, (S)-1H-Indole-3-carboxylic acid {2-cyclohexyl-1-[2-(4-methoxy-phenylamino)-ethylcarbamoyl]-ethyl}-amide]
